From patent US10800791B2, “Triazole ACC inhibitors and uses thereof” (Gilead Apollo, LLC, priority 2015, dated 2020) come the findings set out here.

One assay addresses human (hACC2) (Homo sapiens, UniProt O00763). Nature of the assay: In vitro ACC inhibition assay (ADP-Glo), hACC2. In kind it is biochemical. The following applies: 5 nM ACC2, 20 μM ATP, 20 μM acetyl-CoA. The protocol: The detailed procedure is as follows. […] 10 μL ADP glo reagent was added. […] 20 μL kinase detection reagent was added.
The test system of the next assay is C. albicans. Put plainly: Antifungal Activity Assay (broth microtiter MIC), C. albicans. In kind it is cell-based, Candida albicans. Particulars: Candida albicans, ATCC90028, 48 h. Summed up:
(§1)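 Colonies from 24 h Sabouraud dextrose agar plates (35° C) are suspended in RPMI 1640+MOPS and diluted to give 2.5×10^3 CFU/mL in the wells. Plates are set up per CLSI M27-A3. Visual MIC is recorded at 48 h.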

A further assay deals with C. krusei. Nature of the assay: Antifungal Activity Assay (broth microtiter MIC), C. krusei. Particulars: Pichia kudriavzevii, ATCC6258, 48 h. It counts as cell-based, Candida krusei. Summed up: as §1
A further assay concerns C. parapsilosis. Nature of the assay: Antifungal Activity Assay (broth microtiter MIC), C. parapsilosis. It counts as cell-based, Candida parapsilosis. The following applies: Lodderomyces parapsilosis, ATCC22019, 48 h. Summed up:
as §1

Another assay has as its target fungal (fACC2) (UniProt Q00955). The following applies: read-out: fACC2 (in vitro ACC2 Inhibition Assay, IC50), ADP-Glo, 5 nM ACC2, 20 μM ATP, 20 μM acetyl-CoA. On the technique in general: ADP-Glo turns the ADP formed in a reaction into a luminescent signal.
Where [1] appears, read: Table 3a, ATCC 90028, 3 replicates, MIC recorded at 48 h, read-out: MIC, C. albicans ATCC 90028.
The mark [2] stands for this setting: Table 3b (additional results), ATCC 90028, 3 replicates, MIC recorded at 48 h, read-out: MIC, C. albicans ATCC 90028.
Setting [3] is: Table 3a, ATCC 6258, 3 replicates, MIC recorded at 48 h, read-out: MIC, C. krusei ATCC 6258.
[4] abbreviates: Table 3b (additional results), ATCC 6258, 3 replicates, MIC recorded at 48 h, read-out: MIC, C. krusei ATCC 6258.
Setting [5] is: Table 3a, ATCC 22019, 3 replicates, MIC recorded at 48 h, read-out: MIC, C. parapsilosis ATCC 22019.
The mark [6] stands for this setting: Table 3b (additional results), ATCC 22019, 3 replicates, MIC recorded at 48 h, read-out: MIC, C. parapsilosis ATCC 22019.

In brackets after ≈: the same amount, converted by molar mass. Like-named read-outs stand apart in the source and are kept apart here.

Sequence of human (hACC2) (O00763 whole entry): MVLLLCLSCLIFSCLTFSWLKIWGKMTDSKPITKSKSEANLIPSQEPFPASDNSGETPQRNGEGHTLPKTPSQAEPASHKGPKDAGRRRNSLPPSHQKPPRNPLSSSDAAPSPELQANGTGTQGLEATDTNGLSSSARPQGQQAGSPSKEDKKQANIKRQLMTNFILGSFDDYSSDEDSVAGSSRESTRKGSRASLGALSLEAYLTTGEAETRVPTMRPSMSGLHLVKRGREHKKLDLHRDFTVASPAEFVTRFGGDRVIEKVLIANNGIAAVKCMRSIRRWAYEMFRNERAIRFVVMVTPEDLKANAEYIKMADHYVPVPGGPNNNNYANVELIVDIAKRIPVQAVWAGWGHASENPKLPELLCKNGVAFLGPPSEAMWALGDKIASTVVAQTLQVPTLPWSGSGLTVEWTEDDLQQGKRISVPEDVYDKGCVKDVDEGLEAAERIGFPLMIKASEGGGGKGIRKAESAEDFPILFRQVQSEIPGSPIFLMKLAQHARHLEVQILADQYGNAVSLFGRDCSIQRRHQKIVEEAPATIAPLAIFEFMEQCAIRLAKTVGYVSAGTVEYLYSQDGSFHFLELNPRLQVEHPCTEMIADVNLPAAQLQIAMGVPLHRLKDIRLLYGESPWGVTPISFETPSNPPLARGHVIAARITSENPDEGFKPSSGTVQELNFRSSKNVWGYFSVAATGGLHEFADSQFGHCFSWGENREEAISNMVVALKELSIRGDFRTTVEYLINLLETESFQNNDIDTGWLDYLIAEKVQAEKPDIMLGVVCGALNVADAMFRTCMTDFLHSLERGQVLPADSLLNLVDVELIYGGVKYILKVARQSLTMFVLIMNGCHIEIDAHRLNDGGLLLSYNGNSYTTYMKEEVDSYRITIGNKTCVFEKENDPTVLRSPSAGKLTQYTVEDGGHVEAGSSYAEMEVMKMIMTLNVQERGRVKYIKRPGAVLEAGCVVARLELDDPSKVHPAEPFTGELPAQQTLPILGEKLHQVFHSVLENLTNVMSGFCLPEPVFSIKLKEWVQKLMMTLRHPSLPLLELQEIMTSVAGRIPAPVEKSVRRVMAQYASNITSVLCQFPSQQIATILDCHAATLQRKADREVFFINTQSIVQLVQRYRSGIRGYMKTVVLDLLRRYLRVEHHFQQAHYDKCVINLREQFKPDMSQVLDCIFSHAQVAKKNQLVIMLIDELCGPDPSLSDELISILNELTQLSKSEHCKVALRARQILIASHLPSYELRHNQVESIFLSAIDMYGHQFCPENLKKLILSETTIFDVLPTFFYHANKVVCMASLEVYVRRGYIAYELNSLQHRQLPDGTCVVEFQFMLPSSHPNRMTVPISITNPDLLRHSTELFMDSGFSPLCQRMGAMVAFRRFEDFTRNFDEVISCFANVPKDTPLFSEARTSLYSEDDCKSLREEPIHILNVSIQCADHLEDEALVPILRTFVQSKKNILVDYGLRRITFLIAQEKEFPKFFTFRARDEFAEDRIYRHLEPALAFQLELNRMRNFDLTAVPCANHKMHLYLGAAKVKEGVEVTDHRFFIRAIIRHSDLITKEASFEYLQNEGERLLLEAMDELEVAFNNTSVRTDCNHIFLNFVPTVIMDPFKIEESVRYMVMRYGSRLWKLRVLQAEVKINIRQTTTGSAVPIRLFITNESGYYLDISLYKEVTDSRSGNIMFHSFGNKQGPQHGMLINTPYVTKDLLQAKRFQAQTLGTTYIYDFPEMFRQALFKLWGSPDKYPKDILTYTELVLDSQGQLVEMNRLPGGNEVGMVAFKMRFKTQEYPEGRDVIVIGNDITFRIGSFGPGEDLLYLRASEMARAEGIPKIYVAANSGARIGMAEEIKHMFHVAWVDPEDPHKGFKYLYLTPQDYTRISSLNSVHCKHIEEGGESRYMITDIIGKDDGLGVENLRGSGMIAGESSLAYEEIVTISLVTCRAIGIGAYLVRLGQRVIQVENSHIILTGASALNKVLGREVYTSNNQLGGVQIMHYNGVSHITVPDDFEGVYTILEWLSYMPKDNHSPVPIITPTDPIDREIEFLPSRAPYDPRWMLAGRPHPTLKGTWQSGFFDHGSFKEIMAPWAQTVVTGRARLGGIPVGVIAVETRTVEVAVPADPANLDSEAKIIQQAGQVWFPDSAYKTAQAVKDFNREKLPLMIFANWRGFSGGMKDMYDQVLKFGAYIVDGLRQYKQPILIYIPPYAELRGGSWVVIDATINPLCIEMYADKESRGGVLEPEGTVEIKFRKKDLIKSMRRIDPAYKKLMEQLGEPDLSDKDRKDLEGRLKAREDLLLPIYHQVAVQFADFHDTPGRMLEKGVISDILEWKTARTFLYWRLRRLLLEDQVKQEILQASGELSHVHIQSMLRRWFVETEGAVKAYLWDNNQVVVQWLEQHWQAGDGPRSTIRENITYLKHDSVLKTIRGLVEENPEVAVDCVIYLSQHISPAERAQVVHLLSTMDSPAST
Sequence of fungal (fACC2) (Q00955 whole entry): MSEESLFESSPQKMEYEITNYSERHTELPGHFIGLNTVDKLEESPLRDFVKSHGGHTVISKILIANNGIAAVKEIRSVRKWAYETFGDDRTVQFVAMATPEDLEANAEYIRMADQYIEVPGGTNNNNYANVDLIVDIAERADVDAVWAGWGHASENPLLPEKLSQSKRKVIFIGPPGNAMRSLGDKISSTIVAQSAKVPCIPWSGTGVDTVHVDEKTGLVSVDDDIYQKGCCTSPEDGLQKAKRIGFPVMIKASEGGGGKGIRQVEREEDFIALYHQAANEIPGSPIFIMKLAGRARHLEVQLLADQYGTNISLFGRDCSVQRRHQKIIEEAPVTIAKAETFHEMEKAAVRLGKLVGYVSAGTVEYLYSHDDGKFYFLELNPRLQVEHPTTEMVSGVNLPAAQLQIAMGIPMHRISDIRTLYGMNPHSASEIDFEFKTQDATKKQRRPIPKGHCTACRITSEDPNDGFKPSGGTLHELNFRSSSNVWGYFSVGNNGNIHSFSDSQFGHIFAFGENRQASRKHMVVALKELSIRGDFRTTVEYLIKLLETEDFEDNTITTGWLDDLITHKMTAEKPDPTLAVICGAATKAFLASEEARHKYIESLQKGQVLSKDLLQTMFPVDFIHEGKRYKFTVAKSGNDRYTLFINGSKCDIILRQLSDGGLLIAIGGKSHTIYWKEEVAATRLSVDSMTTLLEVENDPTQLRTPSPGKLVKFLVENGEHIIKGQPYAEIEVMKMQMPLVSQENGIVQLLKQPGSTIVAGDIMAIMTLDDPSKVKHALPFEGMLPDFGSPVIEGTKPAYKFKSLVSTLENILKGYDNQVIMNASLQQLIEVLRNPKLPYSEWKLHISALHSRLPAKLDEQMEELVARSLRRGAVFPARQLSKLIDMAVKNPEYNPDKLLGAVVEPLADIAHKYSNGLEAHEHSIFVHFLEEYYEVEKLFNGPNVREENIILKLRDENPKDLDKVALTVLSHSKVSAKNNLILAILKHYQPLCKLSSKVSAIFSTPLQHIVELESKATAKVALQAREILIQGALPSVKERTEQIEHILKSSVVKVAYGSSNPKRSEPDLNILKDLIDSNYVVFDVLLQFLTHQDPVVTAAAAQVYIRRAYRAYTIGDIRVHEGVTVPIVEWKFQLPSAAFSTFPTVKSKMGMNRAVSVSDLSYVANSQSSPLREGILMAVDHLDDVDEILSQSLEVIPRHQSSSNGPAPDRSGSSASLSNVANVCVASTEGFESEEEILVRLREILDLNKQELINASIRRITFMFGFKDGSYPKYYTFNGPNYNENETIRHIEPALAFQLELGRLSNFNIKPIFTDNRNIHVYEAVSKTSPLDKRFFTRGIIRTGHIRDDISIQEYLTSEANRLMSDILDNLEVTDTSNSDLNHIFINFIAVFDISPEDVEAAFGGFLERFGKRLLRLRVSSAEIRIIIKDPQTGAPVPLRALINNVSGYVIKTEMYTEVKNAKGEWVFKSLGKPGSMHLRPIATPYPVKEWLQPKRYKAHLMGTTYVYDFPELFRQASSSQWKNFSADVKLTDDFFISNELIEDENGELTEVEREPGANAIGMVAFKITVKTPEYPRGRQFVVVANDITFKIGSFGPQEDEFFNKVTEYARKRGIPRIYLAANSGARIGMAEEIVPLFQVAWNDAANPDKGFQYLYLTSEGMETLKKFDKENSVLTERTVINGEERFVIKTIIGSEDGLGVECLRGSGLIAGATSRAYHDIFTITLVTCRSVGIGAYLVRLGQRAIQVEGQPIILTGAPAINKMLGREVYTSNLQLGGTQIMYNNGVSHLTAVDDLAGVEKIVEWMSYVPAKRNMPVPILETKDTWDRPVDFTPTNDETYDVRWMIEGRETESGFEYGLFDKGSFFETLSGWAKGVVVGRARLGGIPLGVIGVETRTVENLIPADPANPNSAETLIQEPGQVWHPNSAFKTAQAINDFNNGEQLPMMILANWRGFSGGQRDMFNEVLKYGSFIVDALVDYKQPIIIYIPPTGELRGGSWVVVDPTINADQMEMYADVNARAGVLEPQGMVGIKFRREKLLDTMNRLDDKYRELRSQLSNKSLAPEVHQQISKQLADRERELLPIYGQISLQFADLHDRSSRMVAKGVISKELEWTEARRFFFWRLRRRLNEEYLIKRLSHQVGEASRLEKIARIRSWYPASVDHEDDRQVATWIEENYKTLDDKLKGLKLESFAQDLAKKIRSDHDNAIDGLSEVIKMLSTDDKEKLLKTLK

As usually defined, the IC50 is the midpoint of a concentration-inhibition curve. Broadly, the MIC is the smallest concentration in the dilution series that meets the test's criterion for growth inhibition. Take `COc1ccccc1[C@H](Cn1c(=O)n(C(C)(C)C(N)=O)c(=O)c2c(C)c(-n3nccn3)sc21)OCCC#N` [Compound I-137, 2-[1-[(2R)-2-(2-cyanoethoxy)-2-(2-methoxyphenyl)ethyl]-5-methyl-2,4-dioxo-6-(2H-1,2,3-triazol-2-yl)-1H,2H,3H,4H-thieno[2,3-d]pyrimidin-3-yl]-2-methylpropanamide]: the IC50 against human (hACC2) (Table 2a) was 1 to 5 nM; at human (hACC2) (Table 2b, additional results) it was 1 to 5 nM; on fungal (fACC2) (Table 2a) it was 1 to 5 nM; on fungal (fACC2) (Table 2b, additional results) it was 1 to 5 nM. In addition, the MIC in the assay on C. albicans (setting [1]) fell in the range of 2.1 to 4 µg/mL (≈ 3.91 to 7.44 µM); in the assay on C. albicans (setting [2]) it was 2.01 to 4 µg/mL (≈ 3.74 to 7.44 µM); with C. krusei (setting [3]) it was 2.1 to 4 µg/mL (≈ 3.91 to 7.44 µM); in the assay with C. krusei (setting [4]) it was 2.01 to 4 µg/mL (≈ 3.74 to 7.44 µM); with C. parapsilosis (setting [5]), 2.1 to 4 µg/mL (≈ 3.91 to 7.44 µM); in the assay with C. parapsilosis (setting [6]) it was 2.01 to 4 µg/mL (≈ 3.74 to 7.44 µM).

Consider `COc1ccc(F)cc1[C@H](Cn1c(=O)n(C(C)(C)C(=O)O)c(=O)c2c(C)c(-n3nccn3)sc21)OCCN1CC(C#N)C1` [Compound I-145], for which the 50% inhibitory concentration (IC50) on human (hACC2) (Table 2b, additional results) was in the range of 10 to 40 nM; at fungal (fACC2) (Table 2a), 1 to 5 nM; at fungal (fACC2) (Table 2b, additional results) it was 1 to 5 nM. The MIC in the assay with C. albicans (setting [1]) is 2.1 to 4 µg/mL (≈ 3.43 to 6.54 µM); in the assay on C. albicans (setting [2]), over 4.01 µg/mL; in the assay on C. krusei (setting [3]) it was 2.1 to 4 µg/mL (≈ 3.43 to 6.54 µM); in the assay with C. krusei (setting [4]) it was over 4.01 µg/mL; with C. parapsilosis (setting [5]), 2.1 to 4 µg/mL (≈ 3.43 to 6.54 µM); with C. parapsilosis (setting [6]), over 4.01 µg/mL.

For `COc1ccc(F)cc1[C@H](Cn1c(=O)n(C(C)(C)C(=O)NC(C)C)c(=O)c2c(C)c(-n3nccn3)sc21)OCCN1CC(C#N)C1` [Compound I-146], the IC50 against human (hACC2) (Table 2b, additional results) is over 40 nM; at fungal (fACC2) (Table 2a) it was 1 to 5 nM; on fungal (fACC2) (Table 2b, additional results), 1 to 5 nM. Moreover, the minimal inhibitory concentration (MIC) lay in the range of 2.1 to 4 µg/mL (≈ 3.22 to 6.13 µM) in the assay on C. albicans (read-out: MIC, C. albicans ATCC 90028, Table 3a, 3 replicates, MIC recorded at 48 h); 1.01 to 2 µg/mL (≈ 1.55 to 3.06 µM) in the assay with C. albicans (read-out: MIC, C. albicans ATCC 90028, Table 3b (additional results), 3 replicates, MIC recorded at 48 h); 2.1 to 4 µg/mL (≈ 3.22 to 6.13 µM) in the assay on C. krusei (read-out: MIC, C. krusei ATCC 6258, Table 3a, 3 replicates, MIC recorded at 48 h); 0.25 to 1 µg/mL (≈ 0.383 to 1.53 µM) in the assay with C. krusei (read-out: MIC, C. krusei ATCC 6258, Table 3b (additional results), 3 replicates, MIC recorded at 48 h); 2.1 to 4 µg/mL (≈ 3.22 to 6.13 µM) in the assay on C. parapsilosis (read-out: MIC, C. parapsilosis ATCC 22019, Table 3a, 3 replicates, MIC recorded at 48 h); 0.25 to 1 µg/mL (≈ 0.383 to 1.53 µM) in the assay on C. parapsilosis (read-out: MIC, C. parapsilosis ATCC 22019, Table 3b (additional results), 3 replicates, MIC recorded at 48 h).

For `COc1ccc(F)cc1[C@H](Cn1c(=O)n(C(C)(C)C(=O)O)c(=O)c2c(C)c(-n3nccn3)sc21)OC[C@@H](C)C#N` [Compound I-147], the IC50 was 5 to 10 nM at human (hACC2) (Table 2a); 5 to 10 nM on human (hACC2) (Table 2b, additional results); 1 to 5 nM on fungal (fACC2) (Table 2a); 1 to 5 nM on fungal (fACC2) (Table 2b, additional results). The MIC with C. albicans (setting [1]) is 2.1 to 4 µg/mL (≈ 3.68 to 7.01 µM); in the assay on C. albicans (setting [2]), 2.01 to 4 µg/mL (≈ 3.52 to 7.01 µM); in the assay with C. krusei (setting [3]), 2.1 to 4 µg/mL (≈ 3.68 to 7.01 µM); in the assay with C. krusei (setting [4]), over 4.01 µg/mL; in the assay on C. parapsilosis (setting [5]) it was 2.1 to 4 µg/mL (≈ 3.68 to 7.01 µM); in the assay on C. parapsilosis (setting [6]), over 4.01 µg/mL.

As to `COc1ccc(F)cc1[C@H](Cn1c(=O)n(C(C)(C)C(=O)O)c(=O)c2c(C)c(-n3nccn3)sc21)OC[C@H](C)C#N` [Compound I-148], the half-maximal inhibitory concentration (IC50) was 1 to 5 nM on human (hACC2) (Table 2a); 1 to 5 nM against human (hACC2) (Table 2b, additional results); 1 to 5 nM at fungal (fACC2) (Table 2a); 1 to 5 nM at fungal (fACC2) (Table 2b, additional results). The MIC in the assay with C. albicans (setting [1]) was 2.1 to 4 µg/mL (≈ 3.68 to 7.01 µM); in the assay on C. albicans (setting [2]), 2.01 to 4 µg/mL (≈ 3.52 to 7.01 µM); in the assay on C. krusei (setting [3]), 2.1 to 4 µg/mL (≈ 3.68 to 7.01 µM); in the assay with C. krusei (setting [4]), over 4.01 µg/mL; in the assay with C. parapsilosis (setting [5]), 2.1 to 4 µg/mL (≈ 3.68 to 7.01 µM); in the assay with C. parapsilosis (setting [6]), over 4.01 µg/mL.

For the compound `COc1ccc(F)cc1[C@H](Cn1c(=O)n(C(C)(C)C(=O)O)c(=O)c2c(C)c(-n3nccn3)sc21)OCC(C)(C)C#N` [Compound I-149, 2-[1-[(2R)-2-(2-cyano-2,2-dimethylethoxy)-2-(5-fluoro-2-methoxyphenyl)ethyl]-5-methyl-2,4-dioxo-6-(2H-1,2,3-triazol-2-yl)-1H,2H,3H,4H-thieno[2,3-d]pyrimidin-3-yl]-2-methylpropanoic acid], the half-maximal inhibitory concentration (IC50) on human (hACC2) (Table 2a) was 1 to 5 nM; at human (hACC2) (Table 2b, additional results), 1 to 5 nM; on fungal (fACC2) (Table 2a) it was 1 to 5 nM; on fungal (fACC2) (Table 2b, additional results), 1 to 5 nM. Besides, the MIC was 2.1 to 4 µg/mL (≈ 3.59 to 6.84 µM) in the assay on C. albicans (setting [1]); 1.01 to 2 µg/mL (≈ 1.73 to 3.42 µM) with C. albicans (setting [2]); 2.1 to 4 µg/mL (≈ 3.59 to 6.84 µM) in the assay on C. krusei (setting [3]); over 4.01 µg/mL in the assay on C. krusei (setting [4]); 2.1 to 4 µg/mL (≈ 3.59 to 6.84 µM) in the assay on C. parapsilosis (setting [5]); over 4.01 µg/mL in the assay on C. parapsilosis (setting [6]).

Turning to `COc1ccc(F)cc1[C@H](Cn1c(=O)n(C(C)(C)C(N)=O)c(=O)c2c(C)c(-n3nccn3)sc21)OC[C@@H](C)C#N` [Compound I-152], the IC50 against human (hACC2) (Table 2a) fell in the range of 1 to 5 nM; at human (hACC2) (Table 2b, additional results) it was 1 to 5 nM; at fungal (fACC2) (Table 2a), 0.4 to 1 nM; at fungal (fACC2) (Table 2b, additional results), 0.3 to 1 nM. Also, the minimal inhibitory concentration (MIC) in the assay with C. albicans (setting [1]) is 2.1 to 4 µg/mL (≈ 3.69 to 7.02 µM); in the assay on C. albicans (setting [2]), 1.01 to 2 µg/mL (≈ 1.77 to 3.51 µM); in the assay with C. krusei (setting [3]) it was 2.1 to 4 µg/mL (≈ 3.69 to 7.02 µM); in the assay with C. krusei (setting [4]), 2.01 to 4 µg/mL (≈ 3.53 to 7.02 µM); in the assay with C. parapsilosis (setting [5]), 2.1 to 4 µg/mL (≈ 3.69 to 7.02 µM); with C. parapsilosis (setting [6]) it was over 4.01 µg/mL.
